Earlier results in patent US8668932B2 (priority 2003, dated 2014).

What was measured:
[1] = tested on: alpha-1 adrenergic receptors
[2] = tested on: neuronal norepinephrine reuptake
[3] = for elimination half-life (T½): in vivo
[4] = not given; remark: listed apart in the source
[5] = tested on: neuronal serotonin reuptake

Row | SMILES | affinity for alpha-1 adrenergic receptors [1] | inhibition of monoamine oxidase (monoamine oxidase) | inhibition of neuronal norepinephrine reuptake [2] | elimination half-life (T½) [3] [h] | absolute bioavailability ([3]; oral) | time to steady-state concentrations ([3]; oral multiple dose therapy) | fraction of dose absorbed ([3]; single oral dose, mass balance studies) | affinity for histaminergic receptors (histaminergic receptors) | plasma protein binding | pKa [4] | inhibition of dopamine reuptake (dopamine reuptake) | inhibition of neuronal serotonin reuptake [5]
1 | COc1ccc(C(CN(C)C)C2(O)CCCCC2)cc1.Cl (racemic) [venlafaxine, (R/S)-1-[2-(dimethylamino)-1-(4-methoxyphenyl)ethyl]cyclohexanol hydrochloride] | no significant affinity | does not inhibit | potent inhibitors | 5 ± 2 | about 45% | three | at least 92% | no significant affinity | approximately 30% | 9.4 | weak inhibitors | –
2 | CN(C)CC(c1ccc(O)cc1)C1(O)CCCCC1 (stereo not drawn) [ODV, O-desmethylvenlafaxine] | – | – | potent inhibitors | 11 ± 2 | – | – | – | – | – | – | weak inhibitors | potent inhibitors
